From patent US20260262643A1, “HERBICIDAL BENZOXAZINES” (FMC CORPORATION, priority 2022, published 2026)

How the values were obtained:
barnyardgrass [1] = assay: Test D flooded paddy test; assay type: in vivo, Echinochloa crus-galli; conditions: 250 g ai/ha, applied to paddy water, visual rating after 13 to 14 days, scale 0 to 100 (0 no effect, 100 complete control)
In short: (§1)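 Seedlings reached the 2-leaf stage, then pots were flooded to 3 cm over the soil surface. Compound was applied into the water, depth was maintained, and plants stayed in the greenhouse 13 to 14 days before visual scoring (0–100) relative to controls.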

wheat [2] = assay: Test C postemergence; assay type: in vivo, Triticum aestivum; conditions: 10 days, 0 to 100 scale (0 no effect, 100 complete control)
In short: (§2)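 Seeds in loam–sand blend received preemergence directed soil spray of test chemicals in non-phytotoxic solvent with surfactant; postemergence treatment was applied at one- to two-leaf stage (2–10 cm). After 10 days in greenhouse, injury rated visually versus untreated controls, 0 (no effect) to 100 (complete control).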

ragweed [3] = assay: Test C postemergence; assay type: in vivo, Ambrosia artemisiifolia; conditions: 10 days, 0 to 100 scale (0 no effect, 100 complete control)
In short: as §2

rice = assay: Test D flooded paddy test; assay type: in vivo, Oryza sativa; conditions: 250 g ai/ha, applied to paddy water, visual rating after 13 to 14 days, scale 0 to 100 (0 no effect, 100 complete control)
In short: as §1

oat, wild [4] = assay: Test C preemergence; assay type: in vivo, Avena fatua
In short: as §2

sedge, umbrella = assay: Test D flooded paddy test; assay type: in vivo, Cyperus difformis; conditions: 250 g ai/ha, applied to paddy water, visual rating after 13 to 14 days, scale 0 to 100 (0 no effect, 100 complete control)
In short: as §1

soybean [5] = assay: Test C postemergence; assay type: in vivo, Glycine max; conditions: 10 days, 0 to 100 scale (0 no effect, 100 complete control)
In short: as §2

pigweed, palmer [6] = assay: Test C preemergence; assay type: in vivo, Amaranthus palmeri
In short: as §2

green foxtail [7] = assay: Test C postemergence; assay type: in vivo, Setaria viridis; conditions: 10 days, 0 to 100 scale (0 no effect, 100 complete control)
In short: as §2

blackgrass [8] = assay: Test C preemergence; assay type: in vivo, Alopecurus myosuroides
In short: as §2

kochia [9] = assay: Test C postemergence; assay type: in vivo, Bassia scoparia; conditions: 10 days, 0 to 100 scale (0 no effect, 100 complete control)
In short: as §2

ragweed [10] = assay: Test C preemergence; assay type: in vivo, Ambrosia artemisiifolia
In short: as §2

ryegrass, Italian [11] = assay: Test C postemergence; assay type: in vivo, Lolium multiflorum; conditions: 10 days, 0 to 100 scale (0 no effect, 100 complete control)
In short: as §2

corn [12] = assay: Test C preemergence; assay type: in vivo, Zea mays
In short: as §2

galium = assay: Test C postemergence; assay type: in vivo, Galium aparine; conditions: 10 days, 0 to 100 scale (0 no effect, 100 complete control)
In short: as §2

kochia [13] = assay: Test C preemergence; assay type: in vivo, Bassia scoparia
In short: as §2

oat, wild [14] = assay: Test C postemergence; assay type: in vivo, Avena fatua; conditions: 10 days, 0 to 100 scale (0 no effect, 100 complete control)
In short: as §2

green foxtail [15] = assay: Test C preemergence; assay type: in vivo, Setaria viridis
In short: as §2

wheat [16] = assay: Test C preemergence; assay type: in vivo, Triticum aestivum
In short: as §2

barnyardgrass [17] = assay: Test C postemergence; assay type: in vivo, Echinochloa crusgalli; conditions: 10 days, 0 to 100 scale (0 no effect, 100 complete control)
In short: as §2

ryegrass, Italian [18] = assay: Test C preemergence; assay type: in vivo, Lolium multiflorum
In short: as §2

blackgrass [19] = assay: Test C postemergence; assay type: in vivo, Alopecurus myosuroides; conditions: 10 days, 0 to 100 scale (0 no effect, 100 complete control)
In short: as §2

horseweed = assay: Test C postemergence; assay type: in vivo, Erigeron canadensis; conditions: 10 days, 0 to 100 scale (0 no effect, 100 complete control)
In short: as §2

ducksalad = assay: Test D flooded paddy test; assay type: in vivo, Heteranthera limosa; conditions: 250 g ai/ha, applied to paddy water, visual rating after 13 to 14 days, scale 0 to 100 (0 no effect, 100 complete control)
In short: as §1

corn [20] = assay: Test C postemergence; assay type: in vivo, Zea mays; conditions: 10 days, 0 to 100 scale (0 no effect, 100 complete control)
In short: as §2

barnyardgrass [21] = assay: Test C preemergence; assay type: in vivo, Echinochloa crusgalli
In short: as §2

pigweed, palmer [22] = assay: Test C postemergence; assay type: in vivo, Amaranthus palmeri; conditions: 10 days, 0 to 100 scale (0 no effect, 100 complete control)
In short: as §2

soybean [23] = assay: Test C preemergence; assay type: in vivo, Glycine max
In short: as §2

[24] = 500 g ai/ha, preemergence, 0 to 100 scale (0 no effect, 100 complete control)
[25] = Preemergence, 125 g ai/ha, 0 to 100 scale, 0 no effect, 100 complete control

## Cc1ncn(-c2ccc(C)c(C(=O)N3CC(C(F)(F)F)Oc4c(Cl)cccc43)c2)n1 (stereo not shown) [Compound 349]
Barnyardgrass [1]
  Plant response rating, Barnyardgrass (Flood): 0
Wheat [2]; 500 g ai/ha, postemergence
  Plant response rating, Wheat: 80
Wheat [2]; Postemergence, 125 g ai/ha
  Plant response rating, Wheat: 30
Ragweed [3]; 500 g ai/ha, postemergence
  Plant response rating, Ragweed: 40
Ragweed [3]; Postemergence, 125 g ai/ha
  Plant response rating, Ragweed: 30
rice
  Plant response rating, Rice (Flood): 0
oat, wild [4]; [24]
  Oat, Wild plant response rating: 90
oat, wild [4]; [25]
  Plant response rating, Oat, Wild: 20
sedge, umbrella
  Plant response rating, Sedge, Umbrella (Flood): 95
Soybean [5]; 500 g ai/ha, postemergence
  Plant response rating, Soybean: 100
Soybean [5]; Postemergence, 125 g ai/ha
  Plant response rating, Soybean: 100
pigweed, palmer [6]; [24]
  Pigweed, Palmer plant response rating: 100
pigweed, palmer [6]; [25]
  Plant response rating, Pigweed, Palmer: 100
Green foxtail [7]; 500 g ai/ha, postemergence
  Plant response rating, Foxtail, Green: 90
Green foxtail [7]; Postemergence, 125 g ai/ha
  Plant response rating, Foxtail, Green: 70
Blackgrass [8]; [24]
  Blackgrass plant response rating: 80
Blackgrass [8]; [25]
  Plant response rating, Blackgrass: 50
Kochia [9]; 500 g ai/ha, postemergence
  Plant response rating, Kochia: 90
Kochia [9]; Postemergence, 125 g ai/ha
  Plant response rating, Kochia: 80
Ragweed [10]; [24]
  Ragweed plant response rating: 80
Ragweed [10]; [25]
  Plant response rating, Ragweed: 20
ryegrass, Italian [11]; 500 g ai/ha, postemergence
  Plant response rating, Ryegrass, Italian: 80
ryegrass, Italian [11]; Postemergence, 125 g ai/ha
  Plant response rating, Ryegrass, Italian: 50
Corn [12]; [24]
  Corn plant response rating: 60
Corn [12]; [25]
  Plant response rating, Corn: 40
galium; 500 g ai/ha, postemergence
  Plant response rating, Galium: 100
galium; Postemergence, 125 g ai/ha
  Plant response rating, Galium: 100
Kochia [13]; [24]
  Kochia plant response rating: 90
Kochia [13]; [25]
  Plant response rating, Kochia: 80
oat, wild [14]; 500 g ai/ha, postemergence
  Plant response rating, Oat, Wild: 70
oat, wild [14]; Postemergence, 125 g ai/ha
  Plant response rating, Oat, Wild: 30
Green foxtail [15]; [24]
  Foxtail, Green plant response rating: 100
Green foxtail [15]; [25]
  Plant response rating, Foxtail, Green: 100
Wheat [16]; [24]
  Wheat plant response rating: 70
Wheat [16]; [25]
  Plant response rating, Wheat: 20
Barnyardgrass [17]; 500 g ai/ha, postemergence
  Plant response rating, Barnyardgrass: 90
Barnyardgrass [17]; Postemergence, 125 g ai/ha
  Plant response rating, Barnyardgrass: 30
ryegrass, Italian [18]; [24]
  Ryegrass, Italian plant response rating: 100
ryegrass, Italian [18]; [25]
  Plant response rating, Ryegrass, Italian: 100
Blackgrass [19]; 500 g ai/ha, postemergence
  Plant response rating, Blackgrass: 100
Blackgrass [19]; Postemergence, 125 g ai/ha
  Plant response rating, Blackgrass: 90
horseweed; 500 g ai/ha, postemergence
  Plant response rating, Horseweed: 50
horseweed; Postemergence, 125 g ai/ha
  Plant response rating, Horseweed: 10
ducksalad
  Plant response rating, Ducksalad (Flood): 0
Corn [20]; 500 g ai/ha, postemergence
  Plant response rating, Corn: 90
Corn [20]; Postemergence, 125 g ai/ha
  Plant response rating, Corn: 80
Barnyardgrass [21]; [24]
  Barnyardgrass plant response rating: 100
Barnyardgrass [21]; [25]
  Plant response rating, Barnyardgrass: 70
pigweed, palmer [22]; 500 g ai/ha, postemergence
  Plant response rating, Pigweed, Palmer: 90
pigweed, palmer [22]; Postemergence, 125 g ai/ha
  Plant response rating, Pigweed, Palmer: 50
Soybean [23]; [24]
  Soybean plant response rating: 100
Soybean [23]; [25]
  Plant response rating, Soybean: 50
